# Patent US20230203126A1, “A COMPOSITION COMPRISING S-ARRESTIN PEPTIDES” (WORG PHARMACEUTICALS (HANGZHOU) CO., LTD., priority 2019, published 2023)
# No end group written: not given here.
# System: MHC II molecules on dendritic cells (CD11c+ cells)
# Test: In vivo MHC class II loading assay (DR3tg mice)
# Set-up: species or system HLA-DR3-transgenic mice
# Details: 100 µg peptide s.c., spleen 2 h post injection, 72 h co-culture, vs PBS-injected control
# Description: FIG. 2: Peptide 17JK is correctly loaded on MHC class II in vivo. Response of peptide-specific CD4+ T cells towards peptide loaded in vivo on dendritic cells is shown. HLA-DR3-transgenic mice were injected subcutaneously with 100 µg of 17JK peptide. 2 h post injection, spleens were dissected and CD11c+ cells (dendritic cells) were isolated. These CD11c+ cells were co-cultured with peptide-specific CD4+ cells for 72 h at 37° C. IFNy was measured in the supernatant of these cultures to evaluate the response to peptide by the CD4+ T cells. (*** p<0.001 Mann-Whitney U-test)
# FIG. 3: Peptide 15N3K is correctly loaded on MHC class II in vivo. […] IFNy was measured in the supernatant of these cultures to evaluate the response to peptide by the CD4+ T cells. […]
# When 100 µg of peptide 9K1K was injected in DR2tg mice or when peptide 17JK or 15N3K was injected in DR3tg mice, these peptides could be detected on dendritic cells (CD11c+ cells) in the spleens of these mice 2 h post injection. Activation (IFNY production) of peptide-specific CD4+ T cells by the isolated CD11 c+ cells was used as a read-out. […]
# DR3tg or DR2tg mice were injected with 100 µg of peptide in 100 µl PBS subcutaneously (s.c.) in the flank. […] After 72 hours, supernatant of these co-cultures was collected and CD4+ T cell activation was analysed by IFNy ELISA (R&D Systems, Abingdon, UK). […]
row,Substance,CD4+ T cell activation (IFNy) by CD11c+ cells isolated from spleen of injected mice
1,KKKVIFKKISRDKSVTIYLGKKK-NH2 [15N3K],significant CD4+ T cell activation
2,KKKLTFRRDLYFSRVQVYKKK-NH2 [17JK],significant CD4+ T cell activation
